Test results published in patent US8394969B2, “Cyclic benzimidazole derivatives useful as anti-diabetic agents” (Merck Sharp & Dohme Corp., priority 2008, dated 2013).
Counter-ions that a name gives are not always drawn.

Each molecule was assayed against recombinant human AMPK complex 1 (containing α1β1γ1) (Homo sapiens, UniProt Q13131+Q9Y478) (assay: […] (in vitro AMPK activation assay)). Details: not given.
Type: biochemical

Sequence of recombinant human AMPK complex 1 (containing α1β1γ1) (Q13131 whole entry): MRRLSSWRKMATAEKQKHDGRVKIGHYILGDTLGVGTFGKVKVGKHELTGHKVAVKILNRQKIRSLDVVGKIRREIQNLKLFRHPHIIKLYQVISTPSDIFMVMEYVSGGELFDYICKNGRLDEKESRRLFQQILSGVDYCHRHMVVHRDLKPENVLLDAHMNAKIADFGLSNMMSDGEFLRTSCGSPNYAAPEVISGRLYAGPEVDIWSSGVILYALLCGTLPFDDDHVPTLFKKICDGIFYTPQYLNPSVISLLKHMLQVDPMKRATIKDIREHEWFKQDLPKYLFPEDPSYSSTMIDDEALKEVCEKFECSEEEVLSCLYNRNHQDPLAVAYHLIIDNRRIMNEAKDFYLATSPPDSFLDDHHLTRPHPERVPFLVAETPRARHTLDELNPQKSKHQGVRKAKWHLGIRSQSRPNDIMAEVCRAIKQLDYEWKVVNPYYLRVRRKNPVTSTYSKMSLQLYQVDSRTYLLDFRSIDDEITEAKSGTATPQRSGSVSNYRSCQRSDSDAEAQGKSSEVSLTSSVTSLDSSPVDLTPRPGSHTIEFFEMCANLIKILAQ
Sequence of recombinant human AMPK complex 1 (containing α1β1γ1) (Q9Y478 whole entry): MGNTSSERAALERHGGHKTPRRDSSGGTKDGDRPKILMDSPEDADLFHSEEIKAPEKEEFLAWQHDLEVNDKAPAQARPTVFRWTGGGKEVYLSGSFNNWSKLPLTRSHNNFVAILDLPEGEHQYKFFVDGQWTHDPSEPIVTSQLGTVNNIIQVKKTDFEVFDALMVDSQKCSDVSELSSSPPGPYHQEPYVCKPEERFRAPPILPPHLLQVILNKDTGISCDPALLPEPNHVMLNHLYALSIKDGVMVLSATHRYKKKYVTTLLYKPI
Sequence of recombinant human AMPK complex 1 (containing α1β1γ1) (P54619 whole entry partner): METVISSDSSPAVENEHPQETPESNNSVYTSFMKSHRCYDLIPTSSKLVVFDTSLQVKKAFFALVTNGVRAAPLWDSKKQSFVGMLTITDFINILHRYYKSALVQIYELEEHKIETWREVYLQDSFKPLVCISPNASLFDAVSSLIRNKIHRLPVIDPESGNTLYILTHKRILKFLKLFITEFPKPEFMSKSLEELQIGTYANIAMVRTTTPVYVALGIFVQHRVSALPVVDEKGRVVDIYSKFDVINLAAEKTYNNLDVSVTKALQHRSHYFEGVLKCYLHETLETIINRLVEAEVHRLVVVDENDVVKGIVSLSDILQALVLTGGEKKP

Row | Structure (SMILES) | % Maximum AMP Activation of human AMPK Complex 1
1 | COc1ccc(-c2cc3nc(Oc4ccc(C)c(C(=O)O)c4)[nH]c3cc2Cl)c(F)c1.N [Example 342, Ammonium 5-{[6-chloro-5-(2-fluoro-4-methoxyphenyl)-1H-benzimidazol-2-yl]oxy}-2-methylbenzoate] | greater than 80%

Same assay, conditions: read-out: % Maximum AMP Activation of human AMPK Complex 1, recombinant human AMPK complex 1 (α1β1γ1); basal activity subtracted

Row | Structure (SMILES) | Emax [%]
2 | Cc1cc(-c2cc3nc(Oc4ccc(C)c(C(=O)O)c4)[nH]c3cc2Cl)ccc1F [Example 328, Ammonium 5-{[6-chloro-5-(4-fluoro-3-methylphenyl-1H-benzimidazol-2-yl]oxy}-2-methylbenzoate] | > 80
3 | Cc1ccc(Oc2nc3cc(-c4ccccc4C(C)C)c(Cl)cc3[nH]2)cc1C(=O)O [Example 329, Ammonium 5-{[6-chloro-5-(2-isopropylphenyl)-1H-benzimidazol-2-yl]oxy}-2-methylbenzoate] | > 80
4 | Cc1ccc(Oc2nc3cc(-c4ccc(C(F)(F)F)cc4)c(Cl)cc3[nH]2)cc1C(=O)O [Example 337, Ammonium 5-({6-chloro-5-[4-(trifluoromethyl)phen-yl]-1H-benzimidazol-2-yl}oxy)-2-methylbenzoate] | > 80
5 | COc1cccc(-c2cc3nc(Oc4ccc(C)c(C(=O)O)c4)[nH]c3cc2Cl)c1 [Example 338, Ammonium 5-{[6-chloro-5-(3-methoxyphenyl)-1H-benzimidazol-2-yl]oxy}-2-methylbenzoate] | > 80
6 | Cc1ccc(Oc2nc3cc(-c4cccc(C(C)C)c4)c(Cl)cc3[nH]2)cc1C(=O)O [Example 339, Ammonium 5-{[6-chloro-5-(3-isopropylphenyl)-1H-benzimidazol-2-yl]oxy}-2-methylbenzoate] | > 80
7 | Cc1ccc(-c2cc3nc(Oc4ccc(C)c(C(=O)O)c4)[nH]c3cc2Cl)cc1C [Example 340, Ammonium 5-{[6-chloro-5-(3,4-dimethylphenyl)-1H-benzimidazol-2-yl]oxy}-2-methylbenzoate] | > 80
8 | CSc1ccc(-c2cc3nc(Oc4ccc(C)c(C(=O)O)c4)[nH]c3cc2Cl)cc1 [Example 343, Ammonium 5-({6-chloro-5-[4-(methylthio)phenyl]-1H-benzimidazol-2-yl}oxy)-2-methylbenzoate] | > 80

Same assay, conditions: recombinant human AMPK complex 1 (α1β1γ1); basal activity subtracted; read-out: % Maximum AMP Activation of human AMPK Complex 1

Row | Structure (SMILES) | Emax [%]
9 | Cc1cc(Oc2nc3cc(-c4ccc5c(c4)OCCN5C)c(Cl)cc3[nH]2)cc(C(=O)O)c1C [Example 312, 5-[6-Chloro-5-(4-methyl-3,4-dihydro-2H-benzo[1,4]oxazin-7-yl)-1H-benzoimidazol-2-yloxy]-2,3-dimethyl-benzoic acid] | > 80
10 | Cc1cc(Oc2nc3cc(-c4ccc(-c5ccc(O)nc5)cc4)c(Cl)cc3[nH]2)cc(C(=O)O)c1C [Example 313, 5-{6-Chloro-5-[4-(6-hydroxy-pyridin-3-yl)-phenyl]-1H-benzoimidazol-2-yloxy}-2,3-dimethyl-benzoic acid] | > 80
11 | COC(=O)c1cc(Oc2nc3cc(-c4ccc(-c5ccc(OC)nc5)cc4)c(Cl)cc3[nH]2)cc(C)c1C [Example 314, 5-{6-Chloro-5-[4-(6-methoxy-pyridin-3-yl)-phenyl]-1H-benzoimidazol-2-yloxy}-2,3-dimethyl-benzoic acid methyl ester] | > 80
12 | COc1ccc(-c2ccc(-c3cc4nc(Oc5cc(C)c(C)c(C(=O)O)c5)[nH]c4cc3Cl)cc2)cn1 [Example 315, 5-{6-Chloro-5-[4-(6-methoxy-pyridin-3-yl)-phenyl]-1H-benzoimidazol-2-yloxy}-2,3-dimethyl-benzoic acid] | > 80
13 | Cc1cc(Oc2nc3cc(-c4ccc(C(C)(C)O)cc4)c(Cl)cc3[nH]2)cc(C(=O)O)c1C [Example 316, 5-{6-Chloro-5-[4-(1-hydroxy-1-methyl-ethyl)-phenyl]-1H-benzoimidazol-2-yloxy}-2,3-dimethyl-benzoic acid] | > 80
14 | CC(=O)c1ccc(-c2cc3nc(Oc4cc(C)c(C)c(C(=O)O)c4)[nH]c3cc2Cl)cc1 [Example 317, 5-[5-(4-Acetyl-phenyl)-6-chloro-1H-benzoimidazol-2-yloxy]-2,3-dimethyl-benzoic acid] | > 80
15 | Cc1ccc(Oc2nc3cc(-c4ccc(N(C)C)cc4)c(Cl)cc3[nH]2)cc1C(=O)O [Example 318, 2-(3-carboxy-4-methylphenoxy)-6-chloro-5-[4-(dimethylamino)phen-yl]-1H-benzimidazol-3-ium chloride] | > 80
16 | Cc1ccc(Oc2nc3cc(-c4ccc5c(c4)CCN5CCO)c(Cl)cc3[nH]2)cc1C(=O)O [Example 319, 5-({6-chloro-5-[1-(2-hydroxyethyl)-2,3-dihydro-1H-indol-5-yl]-1 H-benzimidazol-2-yl}oxy)-2-methylbenzoic acid] | > 80
17 | Cc1ccc(Oc2nc3cc(-c4cccc5c4CCN5C(C)C)c(Cl)cc3[nH]2)cc1C(=O)O [Example 324, 5-{[6-chloro-5-(1-isopropyl-2,3-dihydro-1H-indol-4-yl)-1H-benzimidazol-2-yl]oxy}-2-methylbenzoic acid] | > 80
18 | Cc1ccc(Oc2nc3cc(-c4ccc(CO)cc4)c(Cl)cc3[nH]2)cc1C(=O)O [Example 330, 2-(3-carboxy-4-methylphenoxy)-6-chloro-5-[4-(hydroxymethyl)phenyl]-1H-3,1-benzimidazol-3-ium trifluoroacetate] | > 80
19 | Cc1ccc(Oc2nc3cc(-c4ccc([S+](C)[O-])cc4)c(Cl)cc3[nH]2)cc1C(=O)O (centres unmarked) [Example 331, 2-(3-carboxy-4-methylphenoxy)-6-chloro-5-[4-(methylsulfinyl)phenyl]-1H-3,1-benzimidazol-3-ium formate] | > 80
20 | Cc1ccc(Oc2nc3cc(-c4cccc(CO)n4)c(Cl)cc3[nH]2)cc1C(=O)O [Example 332, 2-(3-carboxy-4-methylphenoxy)-6-chloro-5-[6-(hydroxymethyl)pyridin-2-yl]-1H-3,1-benzimidazol-3-ium formate] | > 80
21 | Cc1ccc(Oc2nc3cc(-c4cccc5ncccc45)c(Cl)cc3[nH]2)cc1C(=O)O [Example 333, 2-(3-carboxy-4-methylphenoxy)-6-chloro-5-quinolin-5-yl-1H-3,1-benzimidazol-3-ium formate] | > 80
22 | COc1cccc(-c2cc3nc(Oc4ccc(C)c(C(=O)O)c4)[nH]c3cc2Cl)n1 [Example 334, 2-(3-carboxy-4-methylphenoxy)-6-chloro-5-(6-methoxypyridin-2-yl)-1H-3,1-benzimidazol-3-ium formate] | > 80
23 | Cc1ccnc(-c2cc3nc(Oc4ccc(C)c(C(=O)O)c4)[nH]c3cc2Cl)c1 [Example 335, 2-(3-carboxy-4-methylphenoxy)-6-chloro-5-(4-methylpyridin-2-yl)-1H-3,1-benzimidazol-3-ium formate] | > 80
24 | Cc1ccc(Oc2nc3cc(-c4cncc5ccccc45)c(Cl)cc3[nH]2)cc1C(=O)O [Example 336, 2-(3-carboxy-4-methylphenoxy)-6-chloro-5-isoquinolin-4-yl-1H-3,1-benzimidazol-3-ium formate] | > 80

Same assay, conditions: recombinant human AMPK complex 1 (α1β1γ1); read-out: EC50

Row | Structure (SMILES) | EC50 [nM]
25 | Cc1ccc(Oc2nc3cc(-c4cc5ccn(CCO)c5cc4F)c(Cl)cc3[nH]2)cc1C(=O)O [Example 325, 5-({6-chloro-5-[6-fluoro-1-(2-hydroxyethyl)-1H-indol-5-yl]-1H-benzimidazol-2-yl}oxy)-2-methylbenzoic acid] | 5
26 | COc1ccc(-c2cc3nc(Oc4ccc(C)c(C(=O)O)c4)[nH]c3cc2Cl)c(F)c1 [Example 326, 5-{[6-chloro-5-(2-fluoro-4-methoxyphenyl)-1H-benzimidazol-2-yl]oxy}-2-methylbenzoic acid] | 10
